“And” between values parts separate entries of the source, which are not always exact repeats. Equal values may be shown once. The source made the active and inactive calls. The calls are words filed in the database; no cut-off is given here.
Assays:
[1] = test system: Rattus norvegicus; assay: Antiallergic activity in Sprague-Dawley rat assessed as inhibition of ovalbumin-induced wheal formation at 25 mg/kg, ip administered 5 mins prior to ovalbumin challenge measured after 30 mins by passive cutaneous anaphylaxis assay relative to control; assay type: functional; conditions: route intraperitoneal; for inhibition in vivo at 25 mg/kg: Rattus norvegicus, Sprague-Dawley, ip
[2] = organism: Canis lupus familiaris; assay: Inhibition of Mongrel dog ventricular muscle cAMP phosphodiesterase using adenosine 3',5' monophosphate as substrate at 100 uM by scintillation counting analysis in presence of [8-14C]adenosine relative to control
[3] = Antiallergic activity in antiovalbumin serum sensitized guinea pig lung slices assessed as inhibition of ovalbumin-induced histamine release at 100 uM preincubated for 5 mins followed by ovalbumin challenge measured after 15 mins by fluorometric analysis relative to control; assay type: functional, Cavia porcellus; conditions: for inhibition at 100 µM: Cavia porcellus, Lung
[4] = test system: Rattus norvegicus; assay: Antiallergic activity in Sprague-Dawley rat assessed as inhibition of serotonin-induced wheal formation at 25 mg/kg, ip administered 5 mins prior to serotonin challenge measured 5 mins post serotonin challenge relative to control; assay type: functional
[5] = Antiallergic activity in antiovalbumin serum sensitized guinea pig lung slices assessed as inhibition of ovalbumin-induced histamine release at 0.3 uM preincubated for 5 mins followed by ovalbumin challenge measured after 15 mins by fluorometric analysis relative to control; assay type: functional; conditions: Cavia porcellus
[6] = test system: Rattus norvegicus; assay: Antiallergic activity in Sprague-Dawley rat assessed as inhibition of ovalbumin-induced wheal formation at 25 mg/kg, po administered 10 mins prior to ovalbumin challenge measured after 30 mins by passive cutaneous anaphylaxis assay relative to control; assay type: functional
[7] = Antiallergic activity in antiovalbumin serum sensitized guinea pig lung slices assessed as inhibition of ovalbumin-induced histamine release at 1.5 mM preincubated for 5 mins followed by ovalbumin challenge measured after 15 mins by fluorometric analysis relative to control; assay type: functional; conditions: Cavia porcellus
[8] = test system: Rattus norvegicus; assay: Antiallergic activity in ip dosed Sprague-Dawley rat assessed as inhibition of ovalbumin-induced wheal formation administered 5 mins prior to ovalbumin challenge measured after 30 mins by passive cutaneous anaphylaxis assay; assay type: functional
[9] = test system: Rattus norvegicus; assay: Antiallergic activity in Sprague-Dawley rat assessed as inhibition of ovalbumin-induced wheal formation at 6 mg/kg, ip administered 5 mins prior to ovalbumin challenge measured after 30 mins by passive cutaneous anaphylaxis assay relative to control; assay type: functional; conditions: route intraperitoneal

SMILES	inhibition in vivo at 25 mg/kg [1]	inhibition [2]	inhibition at 100 µM [3]	further results
c1ccc(C2=NCCc3ccccc32)cc1	0%	42%	17%	–
CCOC(=O)C(=O)N1CCc2cc(OC)c(OCc3ccccc3)cc2C1c1ccccc1 (stereo unspecified)	18%	0%	0%	–
Cn1c(=O)c2[nH]cnc2n(C)c1=O	–	51%	–	–
COc1cc2c(cc1O)C(c1ccccc1)=NCC2	46%	83%	36%	–
COc1cc2c(cc1OCc1ccccc1)C(c1ccccc1)NCC2 (racemic)	29%	34%	56%	inhibition in vivo at 25 mg/kg ([4]; route intraperitoneal): 29%
CC(C)NCC(O)c1ccc(O)c(O)c1 (stereo unspecified) [ISOPROTERENOL]	–	–	–	inhibition at 0.3 µM [5]: 49%
COc1cc2c(cc1OC)C(c1cccc(C(F)(F)F)c1)=NCC2	35%	95%	16%	–
COc1cc2c(cc1OC)C(c1ccccc1)=NCC2 [listing 1 of 2 here]	–	97% and 91%	–	–
COc1cc2c(cc1OC)C(Cc1cc(OC)c(OCc3ccccc3)cc1Br)NCC2 (racemic)	0%	45%	27%	–
COc1cc2c(cc1OC)C(c1nccc3cc(OC)c(OC)cc13)OC2=O (stereo unspecified)	16%	33%	–	–
COc1cc2c(cc1OC)C(c1ccccc1)=NCC2 [listing 2 of 2 here]	–	–	–	inhibition (INH) [1]: 31%; inhibition (INH) [3]: 91%
COc1cc2c(cc1OC)C(c1ccccc1OC)=NCC2	36%	56%	–	–
CI.COc1cc2c(cc1OC)C(c1ccccc1)=NCC2	22%	–	–	inhibition (INH) [3]: 63%
Cc1ccc2c(c1)C(c1ccccc1)NCC2 (stereo unspecified)	51%	4%	0%	inhibition in vivo at 25 mg/kg [6]: 17%
COc1cc2c(cc1O)C(c1ccccc1)NCC2 (stereo unspecified)	43%	19%	25%	inhibition in vivo at 25 mg/kg [6]: 6%
COc1cc2c(cc1OC)C(Cc1cc(OCc3ccccc3)c(OC)cc1Br)NCC2 (racemic)	0%	55%	33%	–

SMILES	inhibition in vivo at 25 mg/kg [1]	inhibition [2]	inhibition at 100 µM [3]	further results
Cn1c(=O)c2nc[nH]c2n(C)c1=O [THEOPHYLLINE]	–	–	–	inhibition at 1500 µM [7]: 50%
COc1cc2c(cc1OC)C(c1ccccc1)NCC2.Cl (stereo unspecified)	52%	46%	49%	ED50 [8]: 34 mg/kg; inhibition in vivo at 25 mg/kg [6]: 7%; inhibition [4]: inactive
COc1cc2c(cc1OCc1ccccc1)C(c1ccccc1)=NCC2	36%	95%	18%	–
Clc1ccc2c(c1)C(c1ccccc1)=NCC2	34%	44%	0%	–
c1ccc(C2NCCc3ccccc32)cc1 (stereo unspecified)	17%	7%	46%	–
COc1cc2c(cc1OC)C(c1ccccc1OC)NCC2 (stereo unspecified)	24%	34%	46%	–
COc1cc2c(cc1OC)C1C(=O)Cc3ccccc3CN1CC2 (stereo unspecified)	18%	64%	43%	–
COc1cc2c(cc1OC)C(c1cccc(C(F)(F)F)c1)NCC2 (stereo unspecified)	29%	84%	55%	–
O=C(O)c1cc(=O)c2c(OCC(O)COc3cccc4oc(C(=O)O)cc(=O)c34)cccc2o1 [CROMOLYN SODIUM]	–	–	–	inhibition in vivo at 6 mg/kg [9]: 52%
Cc1ccc2c(c1)C(c1ccccc1)=NCC2	23%	53%	6%	–
COc1cc2c(cc1OC)C(c1ccc(C(C)(C)C)cc1)NCC2.Cl (stereo unspecified)	37%	71%	13%	ED50 [8]: 24 mg/kg; inhibition in vivo at 25 mg/kg [6]: 9%; inhibition [4]: inactive
COc1cc2c(cc1OC)C(C1CCCCC1)=NCC2	18%	70%	–	–
COc1ccc2c(c1)C(c1ccccc1)NCC2.Cl (stereo unspecified)	41%	12%	60%	ED50 [8]: 24 mg/kg; inhibition in vivo at 25 mg/kg [6]: 40%; inhibition [4]: inactive
c1ccc2c(c1)CCNC2	18%	0%	31%	–
COc1cc2c(cc1OC)C(C1CCCCC1)NCC2 (stereo unspecified)	49%	19%	66%	inhibition in vivo at 25 mg/kg [6]: 8%

— ChEMBL document CHEMBL3244223, “Drug-induced modifications of the immune response. 1. Substituted 1-phenylisoquinolines” (1979)
